Laboratory results published in patent US20240010726A1, “LFA-1 SIGNALLING MEDIATOR FOR USE IN CANCER THERAPY” (Universität Basel, priority 2020, published 2024).

Experiments:
Ramos target cells = experiment: Co-culture assay with Blinatumomab, caspase-3 activity in Ramos target cells; type: cell-based, human; details: PHA-blasts, 3.5 h co-culture; reported therapeutic range 230-620 pg ml^−1; varying Mg^2+
Protocol: FIG. 3: Magnesium regulates LFA-1 mediated T cell activation and cytotoxicity as well BiTE- and CAR T-cell functionality. (a) Glycolytic switch of murine WT and LFA-1^−/− CTLs upon injection of anti-CD3/28 Ab in medium containing 1.2 mM Mg^2+ and 0 mM Mg^2+, presented as quantification of summarized data with n=4 mice. (b) Calcium flux in WT and LFA-1^−/− Jurkat T cells stimulated with anti-CD3 Ab in 1.2 mM and 0 mM Mg^2+ medium, respectively. Cells were loaded with Fluo4, and signal intensity as recorded by plate reader, was normalized to unstimulated baseline values. […] Quantified results of n=3 mice with 3 technical replicates each. […] Results are quantified of n=3 mice with 3 technical replicates each. (e) Representative CD11a (LFA-1) surface expression on human naïve and EM CD8 T cells, PHA T cell blasts and REP T cells, assessed by flow cytometry. […] Data is presented as quantified results of n=5 healthy donors (f, g, h), n=3 healthy donors with 2 technical replicates each or n=1 healthy donor with 4 technical replicates (j). […] Data is presented as quantified results of n=1 healthy donor with 4 technical replicates. […] Cytotoxicity is reported as total area under the curve of the fluorescence driven by incorporation of cytotoxic green reagent in dead target cells (green area per μm^2). […]

human PHA T cell blasts [1] = experiment: Glycolytic switch of PHA T cell blasts ± BIRT377; type: cell-based; details: ±BIRT377 50 μM
human PHA T cell blasts [2] = experiment: Degranulation of PHA T cell blasts ± BIRT377; type: cell-based; details: ±BIRT377 50 μM
[3] = test system: murine WT and LFA-1^−/− CTLs; experiment: Degranulation marker CD107a on murine WT and LFA-1−/− CTLs; type: cell-based; details: 8 h anti-CD3/anti-CD28 Ab; 1.2 mM Mg^2+ ± BIRT377 50 μM
REP T cells = experiment: FAK phosphorylation and CD107a degranulation of REP T cells co-incubated with T2 target cells; type: cell-based, human; details: pulsed T2 target cells; 1.2 mM Mg^2+ ± BIRT377 50 μM
Protocol: FIG. 3: Magnesium regulates LFA-1 mediated T cell activation and cytotoxicity as well BiTE- and CAR T-cell functionality. (a) Glycolytic switch of murine WT and LFA-1^−/− CTLs upon injection of anti-CD3/28 Ab in medium containing 1.2 mM Mg^2+ and 0 mM Mg^2+, presented as quantification of summarized data with n=4 mice. (b) Calcium flux in WT and LFA-1^−/− Jurkat T cells stimulated with anti-CD3 Ab in 1.2 mM and 0 mM Mg^2+ medium, respectively. Cells were loaded with Fluo4, and signal intensity as recorded by plate reader, was normalized to unstimulated baseline values. […] Quantified results of n=3 mice with 3 technical replicates each. (d) Caspase-3 activity in EL4 target cells after co-culture with murine WT and LFA-1^−/− CTLs under the conditions as in (c) for 4 hours, in presence of 10 μg/ml PHA. The effector to target cell ratio was 3:1. Results are quantified of n=3 mice with 3 technical replicates each. (e) Representative CD11a (LFA-1) surface expression on human naïve and EM CD8 T cells, PHA T cell blasts and REP T cells, assessed by flow cytometry. Flow cytometry-based assessment of inactivate LFA-1 with bent conformation (f), extended conformation with β2 leg extension (g), LFA-1 with open head-piece (h), phosphorylation of FAK, expression of degranulation marker CD107a (j) on REP T cells after co-incubation with T2 target cells (pulsed with 10^−8 M 9c peptide) in same condition as in (c). The effector to target cell ratio was 1:1. Data is presented as quantified results of n=5 healthy donors (f, g, h), n=3 healthy donors with 2 technical replicates each or n=1 healthy donor with 4 technical replicates (j). […] Data is presented as quantified results of n=1 healthy donor with 4 technical replicates. […] Cytotoxicity is reported as total area under the curve of the fluorescence driven by incorporation of cytotoxic green reagent in dead target cells (green area per μm^2). […] (p) Abundance of IFNγ in cell culture supernatants corresponding to the conditions depicted in (o) at 24 hours was determined by ELISA (n=8, 3 independent experiments). […]

T2 target cells = type: cell-based, human; details: 45 min; E:T 1:1; 1.2 mM Mg^2+ ± BIRT377 50 μM

Substance | Blinatumomab-mediated cytotoxicity (caspase-3 activity in Ramos target cells) (Ramos target cells) | Glycolytic switch of PHA T cell blasts (human PHA T cell blasts [1]) | Degranulation of PHA T cell blasts (human PHA T cell blasts [2]) | CD107a degranulation of LFA-1^−/− CTLs [3] | CD107a degranulation of WT CTLs [3] | Degranulation (CD107a) of REP T cells (REP T cells) | Target cell killing by REP T cells (caspase-3 activity in T2 target cells) (T2 target cells)
Blinatumomab: CD3/CD19 bispecific antibody engaging T cells to bind and eliminate CD19-positive cells | strongly dependent on availability of Mg^2+ |  |  |  |  |  | 
BIRT377 [reference compound] |  | impaired glycolytic switching | decreased degranulation | unaffected | reduced CTL degranulation | reduced degranulation | reduced
